From ChEMBL document CHEMBL1148323, “Conformationally constrained peptide analogues of pTyr-Glu-Glu-Ile as inhibitors of the Src SH2 domain binding” (J Med Chem, 2004) come the findings set out here.

Molecules are shown by their SMILES.

This assay deals with Proto-oncogene tyrosine-protein kinase Src (Homo sapiens, UniProt P12931). Briefly: Concentration of compound required for inhibiting the binding of the fluorescent probe to the c-Src tyrosine kinase SH2 domain by 50%.
Proto-oncogene tyrosine-protein kinase Src, sequence (P12931 2-536 limits assumed): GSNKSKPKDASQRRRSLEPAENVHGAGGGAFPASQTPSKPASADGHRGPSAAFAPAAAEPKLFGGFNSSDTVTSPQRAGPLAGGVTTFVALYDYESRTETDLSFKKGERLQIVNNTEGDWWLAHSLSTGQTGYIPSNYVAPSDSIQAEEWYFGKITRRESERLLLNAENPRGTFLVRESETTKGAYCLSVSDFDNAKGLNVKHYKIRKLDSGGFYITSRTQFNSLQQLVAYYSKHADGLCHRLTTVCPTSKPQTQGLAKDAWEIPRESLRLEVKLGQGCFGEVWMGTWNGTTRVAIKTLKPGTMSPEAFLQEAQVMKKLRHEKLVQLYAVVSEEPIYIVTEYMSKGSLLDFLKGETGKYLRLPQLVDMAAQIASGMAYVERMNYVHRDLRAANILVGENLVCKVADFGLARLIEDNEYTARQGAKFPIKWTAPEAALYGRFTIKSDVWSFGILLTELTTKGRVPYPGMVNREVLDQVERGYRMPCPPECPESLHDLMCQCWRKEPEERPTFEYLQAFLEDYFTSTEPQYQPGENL
What is called IC50 is the concentration needed to halve the response being measured. Turning to `CC[C@H](C)[C@H](NC(=O)[C@H](CCC(=O)O)NC(=O)[C@@H]1CCC(=O)N[C@@H](Cc2ccc(OP(=O)(O)O)cc2)C(=O)N1)C(=O)O`, the IC50 is 3.3 µM. Turning to `CC[C@H](C)[C@H](NC(=O)CC[C@H](NC(=O)[C@H](CCC(=O)O)NC(=O)[C@@H](N)Cc1ccc(OP(=O)(O)O)cc1)C(=O)O)C(=O)O`, the IC50 was > 100 µM. Compound `CC(=O)N[C@@H](Cc1ccc(OP(=O)(O)O)cc1)C(=O)N[C@@H](CCC(=O)O)C(=O)N[C@H](CC(=O)O)CC(=O)N[C@H](C(=O)O)C(C)C` returned an IC50 of 25.7 µM. On to `CC[C@H](C)[C@H](NC(=O)[C@@H]1CCC(=O)N[C@@H](Cc2ccc(OP(=O)(O)O)cc2)C(=O)N[C@@H](CCC(=O)O)C(=O)N1)C(=O)O`, for which the IC50 was found to be 5.9 µM. In the case of `CC[C@H](C)[C@H](NC(=O)C[C@@H]1NC(=O)[C@H](CCC(=O)O)NC(=O)[C@H](Cc2ccc(OP(=O)(O)O)cc2)NC1=O)C(=O)O`, the IC50 came to 1.5 µM. In the case of `CC[C@@H](C)[C@H](NC(=O)[C@H](CCC(=O)O)NC(=O)CC[C@H](NC(=O)[C@@H](N)Cc1ccc(OP(=O)(O)O)cc1)C(=O)O)C(=O)O`, the IC50 is > 100 µM. On to `CC[C@@H](C)[C@H](NC(=O)[C@H](CCC(=O)O)NC(=O)CC[C@@H]1NC(=O)[C@H](Cc2ccc(OP(=O)(O)O)cc2)NC1=O)C(=O)O`, for which the IC50 stood at 1.2 µM. In other words, the single-digit micromolar range.

As for `CC[C@@H](C)[C@H](NC(=O)[C@H](CCC(=O)O)NC(=O)CC[C@H](NC(=O)[C@H](Cc1ccc(OP(=O)(O)O)cc1)NC(C)=O)C(=O)O)C(=O)O`, the IC50 came to 69.5 µM. `CC[C@@H](C)[C@H](NC(=O)[C@H](CCC(=O)O)NC(=O)C[C@H](NC(=O)[C@@H](N)Cc1ccc(OP(=O)(O)O)cc1)C(=O)O)C(=O)O`: the IC50 was > 100 µM.

As for `CC[C@@H](C)[C@H](NC(=O)[C@H](CCC(=O)O)NC(=O)C[C@@H]1NC(=O)[C@H](Cc2ccc(OP(=O)(O)O)cc2)NC1=O)C(=O)O`, the IC50 worked out at 12.1 µM.

The compound `CC(=O)N[C@@H](Cc1ccc(OP(=O)(O)O)cc1)C(=O)N[C@@H](C(=O)O)C(=O)N[C@H](CCC(=O)O)CC(=O)N[C@H](C(=O)O)C(C)C` gave an IC50 of 34.6 µM. Take `CC[C@H](C)[C@H](NC(=O)CC[C@H](NC(=O)[C@H](CCC(=O)O)NC(=O)[C@H](Cc1ccc(OP(=O)(O)O)cc1)NC(C)=O)C(=O)O)C(=O)O`: the IC50 was found to be 80.7 µM. Against the preceding compound, the IC50 is about 2.3-fold higher. Compound `CC[C@@H](C)[C@H](NC(=O)[C@H](CCC(=O)O)NC(=O)C[C@H](NC(=O)[C@H](Cc1ccc(OP(=O)(O)O)cc1)NC(C)=O)C(=O)O)C(=O)O` registered an IC50 of 75.4 µM. Turning to `CC[C@H](C)[C@H](NC(=O)C[C@H](NC(=O)[C@H](CCC(=O)O)NC(=O)[C@H](Cc1ccc(OP(=O)(O)O)cc1)NC(C)=O)C(=O)O)C(=O)O`, the IC50 came to 90.7 µM. This IC50 and that of the compound before are within 1.5-fold of each other. Consider `CC[C@H](C)[C@H](NC(=O)C[C@H](NC(=O)[C@H](CCC(=O)O)NC(=O)[C@@H](N)Cc1ccc(OP(=O)(O)O)cc1)C(=O)O)C(=O)O`, for which the IC50 is > 100 µM.

`CC[C@H](C)[C@H](NC(=O)CC[C@@H]1NC(=O)[C@H](CCC(=O)O)NC(=O)[C@H](Cc2ccc(OP(=O)(O)O)cc2)NC1=O)C(=O)O`: the IC50 came out at 1.1 µM. With `CC(C)[C@H](NC(=O)C[C@@H](CCC(=O)O)NC(=O)C(NC(=O)[C@@H](N)Cc1ccc(OP(=O)(O)O)cc1)C(=O)O)C(=O)O` (single isomer, unassigned) the figure was 83.2 µM; with `CC(C)[C@H](NC(=O)C[C@@H](CC(=O)O)NC(=O)[C@H](CCC(=O)O)NC(=O)[C@@H](N)Cc1ccc(OP(=O)(O)O)cc1)C(=O)O`, 76.3 µM.
